# According to patent US10912741B2, “Prevention of liver cancer with safranal-based formulations” (United Arab Emirates University, priority 2019, dated 2021):
# Columns and labels:
# [1] = system: catalase (CAT); assay: Catalase activity in liver homogenate, DEN/2-AAF hepatocarcinogenesis model; assay type: in vivo, albino Wistar rats; conditions: mean±SEM, 8 rats
# Method: The experimental hepatocarcinogenesis model was developed according to a protocol by […] et al. that was adapted for our purposes. To initiate and promote hepatocarcinogenesis, diethylnitrosamine (DEN) and 2-acetylaminofluorene (2-AAF) were used, respectively. For hepatocarcinogenesis initiation in this model, a single DEN dose (200 mg/kg b.wt.) dissolved in saline was injected intraperitoneally. After initiation, all rats underwent one period of 5-days fasting, as mitotic proliferative stimuli. To promote hepatocarcinogenesis, 2-acetylaminofluorene (2-AAF) was introduced in the form of six daily intragastric doses (30 mg/kg in 1% Tween 80); two weeks after DEN treatment. […] at doses of 25 mg/kg by weight (b.wt.) and 50 mg/kg b.wt, was administrated orally to rats. These doses have been reported to suppress chemically-induced oxidative damage in rats. A total of 40 adult male albino Wistar rats were randomly divided into […] (n=8) and were subjected to different treatments. Group 1 (control) was orally administered distilled water (5 ml/kg b.wt.) throughout the experimental duration and were injected with a single dose of saline. Group 2 ([…] only) was subjected to a safranal dose (50 mg/kg b.wt.) through oral administration for the duration of the experimental period. Hepatocarcinogenesis was induced by DEN and promoted by 2-AAF, as reported previously, in group 3 (HCC). […] Glutathione (GSH) content was determined by analyzing liver homogenates, according to the method of Van Dooran et al. The assay depends on measuring yellow 5-thiol-2-nitrobenzoate absorbance at 412 nm. Glutathione-S-transferase (GST) activity was determined using the method of Habig et al. GST catalyzes the conjugation of GSH thiol group with 1-Chloro-2,4-dinitrobenzene (CDNB), which can be measured by determining the increase in absorbance at 340 nm. […] CAT decomposes hydrogen peroxide (H2O2) to oxygen and water; therefore, the activity of CAT was evaluated according to by the exponential decomposition of H2O2 at 240 nm. […] UV-160-Shimadzu recording spectrophotometer was used to record absorbances. […]
# [2] = system: p-H2AX in HepG2 cells; assay: Western blotting, p-H2AX; assay type: cell-based, human; conditions: 24 hours of safranal treatment (1 mM)
# Method: HepG2, were cultured in RPMI 1640 medium (HyClone, USA) and 1% of 100 U/ml penicillin and 100 ug/ml streptomycin (Sigma, USA) supplemented with 10% fetal bovine serum (Sigma, USA) at 37° C. in a humidified 5% CO2 atmosphere. Cells were sub-cultured each 4-6 days using trypsin 0.25% (Hyclone, USA).
# In 100 mm plates, HepG2 cells were seeded at a density of 2×10^4 in complete growth medium. Cells were allowed to attach for 24 hours, after which complete growth medium was replaced by serum-free medium. Cells were treated with safranal at a concentration of 1 mM (20 mM stock). Plates were incubated for 6, 12, 24, and 48 hours in a humidified 5% CO2 atmosphere at 37° C. At indicated times, 1 mL of cell supernatant was obtained from each plate and was stored at −80° C. for further analysis by ELISA. After which whole cell lysates were prepared. Bicinchoninic acid (BCA) assay (Sigma-Aldrich, USA) was used to determine concentration of protein. Thirty μg of protein were loaded onto 10% SDS polyacrylamide electrophoresis gels. The gels were transferred onto nitrocellulose membranes prior to immunodetection processing with anti-p-IkB-alpha, anti-H2AX (Cell Signaling Technology, USA), and with anti-rabbit IgG peroxidase conjugated secondary antibodies. […]
smiles,measurement,setting,value
"CC1=C(C=O)C(C)(C)CC=C1 [Safranal, 2,6,6-trimethylcyclohexa-1,3-diene-1-carbaldehyde]",CAT,"[1]; HCC (DEN/2-AAF) rats + safranal high dose 50 mg/kg b.wt. oral, 12 weeks",145.4512 ± 4.57 unit/mg protein
same,CAT,"[1]; HCC (DEN/2-AAF) rats + safranal low dose 25 mg/kg b.wt. oral, 12 weeks",141.38 ± 0.91 unit/mg protein
same,CAT,"[1]; safranal alone 50 mg/kg b.wt. oral, no DEN (group 2)",143.75 ± 1.2 unit/mg protein
same,protein level of p-H2AX,[2],remarkable induction of p-H2AX
